Assays:
neutrophil count = assay: Exposure versus fall in nadir neutrophil count, sigmoid Emax model; assay type: in vivo, human; details: 1-nadir/pre-observation neutrophils in cycle 1 vs total AUC of TP3076 plus TP3011, sigmoid Emax fit
Method: Pharmacokinetic parameters derived from plasma concentration-time data of TP3076 or TP3011 by non-compartmental methods using WinNonlin (version 5.1; Pharsight Corp), included maximal plasma concentration (Cmax) and time of Cmax (Tmax), apparent plasma elimination half-life (t1/2), and the area under the curve (AUC). The urinary excretion ratio (fe) of TP3076 and TP3011 was calculated from the urinary concentration and volume up to 48 hours after administration, and the administration dose. The linearity of Cmax and AUC was determined with linear regression, analysis of variance and power model analysis. The sum of the AUCs of TP3076 and TP3011 was plotted against percentage (%) fall in nadir neutrophil count to explore the relationship between exposure and myelosuppression as a measure of anti-proliferative effect and a sigmoid Emax model fitted to the data:
where γ is the Hill equation constant and EAUC50 is the AUC associated with 50% of the maximal effect.

advanced solid tumors = assay: Antitumour activity (RECIST) in Phase I patients; assay type: in vivo, human
Method: The MTD was the dose level below that at which ≥ 2 out of 3–6 patients experienced a DLT. Radiologic assessment of disease was performed every 2 cycles. Patients could remain on treatment if there was evidence of clinical benefit but were withdrawn from the study upon clinical or radiologic progression, unacceptable toxicity or withdrawal of consent.

## CCCCCN1C=Nc2cccc3nc4c(c1c23)Cn1c-4cc2c(c1=O)COC(=O)[C@@]2(CC)OC(=O)CN(C)C(=O)CN [TP300, glycine,glycyl-N-methyl-,(9S)-9-ethyl-9,10,13,15-tetrahydro-10,13-dioxo-1-pentyl-1H,12H-pyrano[3'',4'':6′,7′]indolizino[2′,1′:5,6]pyrido[4,3,2-de]quinazolin-9-yl ester, hydro-chloride]
Neutrophil count
  EAUC50 (AUC associated with 50% of the maximal effect): 1.31
  γ (Hill equation constant): 0.862
Advanced solid tumors; 1 each at 4, 8 and 12 mg/m^2 and 3 at 10 mg/m^2
  patients with stable disease as best response: six
Advanced solid tumors; 32 patients, 1-12 mg/m^2
  objective response as determined by RECIST: no complete or partial responses
Advanced solid tumors; six patients with stable disease
  duration of stable disease: 1.5-5 months

Reference: paper PMC3517777, “Phase I study of TP300 in patients with advanced solid tumors with pharmacokinetic, pharmacogenetic and pharmacodynamic analyses” (BMC Cancer, 2012)
